Reference: ChEMBL document CHEMBL4130363, “Synthesis and pharmacological evaluation of benzamide derivatives as potent and selective sigma-1 protein ligands” (Eur J Med Chem, 2017)
In brackets after ≈: the same amount, converted by molar mass.

What was measured:
[1] = target: T1, Adenosine receptor A1 (Homo sapiens) (UniProt P30542); experiment: Antagonist activity at recombinant human adenosine A1 receptor assessed as inhibition of agonist-induced cAMP induction at 10 uM by HTRF assay; type: functional
T1 sequence (whole entry): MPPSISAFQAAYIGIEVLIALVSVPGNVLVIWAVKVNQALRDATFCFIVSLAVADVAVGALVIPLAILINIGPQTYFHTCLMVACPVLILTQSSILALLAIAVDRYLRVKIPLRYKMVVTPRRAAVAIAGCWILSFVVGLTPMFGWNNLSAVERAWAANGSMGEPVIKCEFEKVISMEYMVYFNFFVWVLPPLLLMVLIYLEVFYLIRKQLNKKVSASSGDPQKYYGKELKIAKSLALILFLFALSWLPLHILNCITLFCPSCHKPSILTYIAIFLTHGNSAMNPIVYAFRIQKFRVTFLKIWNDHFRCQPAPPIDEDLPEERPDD

[2] = target: Cannabinoid receptor 1 (Homo sapiens) (UniProt P21554); experiment: Antagonist activity at recombinant human CB1 receptor assessed as inhibition of agonist-induced cAMP induction at 10 uM by HTRF assay; type: functional
Chain of Cannabinoid receptor 1 (Homo sapiens) (P21554 whole entry): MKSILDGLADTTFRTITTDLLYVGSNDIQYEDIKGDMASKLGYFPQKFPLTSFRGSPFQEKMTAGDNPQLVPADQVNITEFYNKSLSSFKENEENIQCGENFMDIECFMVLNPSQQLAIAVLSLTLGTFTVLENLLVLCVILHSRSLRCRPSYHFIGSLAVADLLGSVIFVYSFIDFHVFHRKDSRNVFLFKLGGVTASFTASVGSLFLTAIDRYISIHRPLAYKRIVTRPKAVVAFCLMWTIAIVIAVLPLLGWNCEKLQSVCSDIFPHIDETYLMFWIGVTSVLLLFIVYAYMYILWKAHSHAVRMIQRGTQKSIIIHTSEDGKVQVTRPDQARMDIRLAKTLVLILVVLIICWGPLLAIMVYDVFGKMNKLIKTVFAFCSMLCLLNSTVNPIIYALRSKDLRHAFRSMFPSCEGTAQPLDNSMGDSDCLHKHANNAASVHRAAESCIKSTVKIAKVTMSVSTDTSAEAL

[3] = target: T2, Vasoactive intestinal polypeptide receptor 1 (Homo sapiens) (UniProt P32241); experiment: Antagonist activity at recombinant human VPAC1 receptor assessed as inhibition of agonist-induced effect at 10 uM by aequorin reporter based assay; type: functional
T2 sequence (whole entry): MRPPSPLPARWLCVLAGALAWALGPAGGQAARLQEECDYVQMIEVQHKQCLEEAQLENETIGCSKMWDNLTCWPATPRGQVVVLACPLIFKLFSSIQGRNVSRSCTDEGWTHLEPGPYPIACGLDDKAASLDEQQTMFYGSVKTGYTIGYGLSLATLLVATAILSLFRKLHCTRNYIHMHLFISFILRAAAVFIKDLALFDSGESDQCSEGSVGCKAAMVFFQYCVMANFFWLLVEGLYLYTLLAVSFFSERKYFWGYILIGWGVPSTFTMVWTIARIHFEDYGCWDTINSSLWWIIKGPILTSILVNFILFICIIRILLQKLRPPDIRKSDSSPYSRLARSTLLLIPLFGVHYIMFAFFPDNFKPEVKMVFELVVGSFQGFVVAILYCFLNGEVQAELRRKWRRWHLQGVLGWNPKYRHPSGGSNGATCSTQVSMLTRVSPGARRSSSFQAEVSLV

[4] = target: Mu-type opioid receptor (Homo sapiens) (UniProt P35372); experiment: Antagonist activity at human mu-type opioid receptor assessed as inhibition of agonist-induced effect at 10 uM by GTPgamma[35S] binding-based assay; type: functional
Chain of Mu-type opioid receptor (Homo sapiens) (P35372 whole entry): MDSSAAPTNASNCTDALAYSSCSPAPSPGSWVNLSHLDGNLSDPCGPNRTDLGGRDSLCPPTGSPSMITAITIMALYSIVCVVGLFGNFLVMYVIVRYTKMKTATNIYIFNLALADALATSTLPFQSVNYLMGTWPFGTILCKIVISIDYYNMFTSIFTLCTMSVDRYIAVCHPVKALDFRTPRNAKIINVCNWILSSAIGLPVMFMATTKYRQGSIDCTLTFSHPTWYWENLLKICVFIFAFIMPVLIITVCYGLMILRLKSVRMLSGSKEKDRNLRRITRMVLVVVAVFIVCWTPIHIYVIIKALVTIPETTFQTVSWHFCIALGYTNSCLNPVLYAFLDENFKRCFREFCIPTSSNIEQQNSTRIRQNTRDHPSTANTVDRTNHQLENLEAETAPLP

[5] = target: T3, Neuropeptide Y receptor type 1 (Homo sapiens) (UniProt P25929); experiment: Antagonist activity at recombinant human NPY1R assessed as inhibition of agonist-induced cAMP levels at 10 uM by HTRF assay; type: functional
T3 sequence (whole entry): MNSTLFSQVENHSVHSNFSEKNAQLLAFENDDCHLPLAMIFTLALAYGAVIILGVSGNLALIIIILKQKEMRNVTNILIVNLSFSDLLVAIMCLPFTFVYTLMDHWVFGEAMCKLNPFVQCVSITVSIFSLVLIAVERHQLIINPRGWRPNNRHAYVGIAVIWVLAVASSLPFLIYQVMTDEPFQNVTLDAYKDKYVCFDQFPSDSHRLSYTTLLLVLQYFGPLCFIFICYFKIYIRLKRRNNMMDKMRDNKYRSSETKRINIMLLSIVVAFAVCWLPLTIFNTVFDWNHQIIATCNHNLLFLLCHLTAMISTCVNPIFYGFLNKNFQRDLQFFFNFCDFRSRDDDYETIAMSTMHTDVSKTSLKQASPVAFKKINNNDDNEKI

[6] = target: T4, Endothelin-1 receptor (Homo sapiens) (UniProt P25101); experiment: Antagonist activity at recombinant human ETA receptor assessed as inhibition of agonist induced effect at 10 uM by aequorin reporter based assay; type: functional
T4 sequence (whole entry): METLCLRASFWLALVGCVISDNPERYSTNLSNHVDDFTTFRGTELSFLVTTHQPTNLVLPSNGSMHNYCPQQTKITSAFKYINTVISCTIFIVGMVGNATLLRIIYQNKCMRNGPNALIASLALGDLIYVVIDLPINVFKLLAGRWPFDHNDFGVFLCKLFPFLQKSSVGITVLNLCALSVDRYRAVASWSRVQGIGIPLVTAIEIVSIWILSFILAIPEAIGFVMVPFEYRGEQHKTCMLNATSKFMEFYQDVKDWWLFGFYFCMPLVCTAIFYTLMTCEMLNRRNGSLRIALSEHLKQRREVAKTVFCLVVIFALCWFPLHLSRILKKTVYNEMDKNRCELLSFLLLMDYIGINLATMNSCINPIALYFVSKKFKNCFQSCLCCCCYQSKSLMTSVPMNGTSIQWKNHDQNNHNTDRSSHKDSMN

[7] = target: 5-hydroxytryptamine receptor 7 (Homo sapiens) (UniProt P34969); experiment: Antagonist activity at recombinant human 5-HT7R assessed as inhibition of agonist-induced cAMP induction at 10 uM by HTRF assay; type: functional
Chain of 5-hydroxytryptamine receptor 7 (Homo sapiens) (P34969 whole entry): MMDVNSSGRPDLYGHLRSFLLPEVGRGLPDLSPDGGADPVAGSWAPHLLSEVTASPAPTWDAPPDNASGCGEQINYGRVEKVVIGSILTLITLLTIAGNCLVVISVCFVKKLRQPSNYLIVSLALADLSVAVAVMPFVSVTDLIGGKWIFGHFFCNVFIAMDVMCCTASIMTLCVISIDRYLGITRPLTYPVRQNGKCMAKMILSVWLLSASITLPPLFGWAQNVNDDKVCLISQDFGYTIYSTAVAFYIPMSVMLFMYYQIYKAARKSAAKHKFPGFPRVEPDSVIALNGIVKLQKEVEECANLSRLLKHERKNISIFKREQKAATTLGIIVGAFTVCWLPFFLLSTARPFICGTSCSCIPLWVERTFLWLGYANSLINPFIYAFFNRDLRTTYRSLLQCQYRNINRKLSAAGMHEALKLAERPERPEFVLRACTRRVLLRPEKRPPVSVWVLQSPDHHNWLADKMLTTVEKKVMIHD

[8] = target: Sigma non-opioid intracellular receptor 1 (Homo sapiens, UniProt Q99720); experiment: Displacement of [3H](+)-pentazocine from S1R in human Jurkat cell membranes after 2 hrs by liquid scintillation counting
Chain of Sigma non-opioid intracellular receptor 1 (Q99720 whole entry): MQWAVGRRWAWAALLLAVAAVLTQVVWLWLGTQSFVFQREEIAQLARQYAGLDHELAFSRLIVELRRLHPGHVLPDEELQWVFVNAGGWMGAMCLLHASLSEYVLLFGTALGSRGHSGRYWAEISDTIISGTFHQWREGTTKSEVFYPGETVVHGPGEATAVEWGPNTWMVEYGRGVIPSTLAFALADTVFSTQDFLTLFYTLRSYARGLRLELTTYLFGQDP

[9] = target: Sigma intracellular receptor 2 (Homo sapiens, UniProt Q5BJF2); experiment: Displacement of [3H]-DTG from S2R in human Jurkat cell membranes after 1 hr in presence of (+)-pentazocine by liquid scintillation counting
Chain of Sigma intracellular receptor 2 (Q5BJF2 whole entry): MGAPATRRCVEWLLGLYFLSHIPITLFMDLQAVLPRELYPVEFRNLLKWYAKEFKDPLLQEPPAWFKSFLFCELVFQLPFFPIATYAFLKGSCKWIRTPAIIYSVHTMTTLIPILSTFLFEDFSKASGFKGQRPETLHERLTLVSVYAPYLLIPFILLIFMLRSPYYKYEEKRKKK

[10] = Aqueous solubility of the compound in PBS buffer at pH 7.8; type: physicochemical
[11] = n-Octanol-PBS buffer distribution coefficient, log D of the compound at pH 7.4; type: physicochemical
[12] = Metabolic stability in human liver microsomes by LC/MS analysis; type: ADME, microsome

Question: Which inhibition [1] does the source give for `CN(CCCNC(=O)c1ccc(Cl)cc1)CCc1ccccc1` here?
Answer: The inhibition was -10%.

Question: What about the inhibition [2] of the same compound?
Answer: Its inhibition is 1%.

Question: What about the inhibition [3] of the same compound?
Answer: Its inhibition is 17%.

Question: And the inhibition [4]?
Answer: Its inhibition is 9%.

Question: And the inhibition [5]?
Answer: Its inhibition is -1%.

Question: Which inhibition [1] does the source give for `CN(CCNC(=O)c1ccc(C#N)cc1)Cc1ccccc1` here?
Answer: Its inhibition is 2%.

Question: What about the inhibition [6] of the same compound?
Answer: The inhibition was 6%.

Question: And the inhibition [3]?
Answer: Its inhibition is 3%.

Question: And the inhibition [7]?
Answer: Its inhibition is -2%.

Question: What about the inhibition [4] of the same compound?
Answer: The inhibition was 9%.

Question: What about the inhibition [5] of the same compound?
Answer: Its inhibition is -2%.

Question: For `CN(CCCNC(=O)c1cccc(Br)c1)Cc1ccccc1`, which inhibition [6] is on record?
Answer: Its inhibition is -9%.

Question: And the inhibition [2]?
Answer: Its inhibition is 3%.

Question: And the inhibition [3]?
Answer: The inhibition was 31%.

Question: What about the inhibition [7] of the same compound?
Answer: Its inhibition is -4%.

Question: And the inhibition [4]?
Answer: The inhibition was 29%.

Question: And the inhibition [5]?
Answer: Its inhibition is -5%.

Question: Which results are given for `COc1cccc(C(=O)NCCCN(C)Cc2ccccc2)c1`?
Answer: inhibition [1]: -2%; inhibition [6]: 5%; inhibition [2]: -5%; inhibition [3]: 1%; inhibition [7]: -3%; inhibition [4]: 20%; inhibition [5]: 3%

Question: With `CN(CCNC(=O)c1ccc(Cl)cc1)Cc1ccccc1` as the compound, how does the Ki [8] read?
Answer: Its Ki is 3.6 nM.

Question: What about the inhibition [6] of the same compound?
Answer: The inhibition was -9%.

Question: What about the inhibition [2] of the same compound?
Answer: The inhibition was 4%.

Question: What about the inhibition [3] of the same compound?
Answer: Its inhibition is 30%.

Question: What about the Ki [9] of the same compound?
Answer: Its Ki is 850 nM.

Question: And the inhibition [5]?
Answer: Its inhibition is -1%.

Question: For `CN(CCNC(=O)c1ccc([N+](=O)[O-])cc1)Cc1ccccc1`, which inhibition [3] is on record?
Answer: Its inhibition is 22%.

Question: And the inhibition [7]?
Answer: Its inhibition is -2%.

Question: What about the inhibition [4] of the same compound?
Answer: The inhibition was 15%.

Question: And the inhibition [5]?
Answer: Its inhibition is -1%.

Question: Which results are given for `CN(CCCNC(=O)c1ccc(Br)cc1)Cc1ccccc1`?
Answer: inhibition [2]: -2%; inhibition [3]: 4%; inhibition [7]: 0%; inhibition [4]: -9%; inhibition [5]: -3%

Question: Which results are given for `CN(CCCNC(=O)c1ccc(C(F)(F)F)cc1)Cc1ccccc1`?
Answer: inhibition [6]: 2%; inhibition [2]: 10%; inhibition [3]: 31%; inhibition [7]: -9%; inhibition [4]: -1%

Question: Which results are given for `COc1ccc(C(=O)NCCCN(C)Cc2ccccc2)cc1`?
Answer: inhibition [6]: -1%; inhibition [2]: -8%; inhibition [7]: -5%; inhibition [4]: 20%; inhibition [5]: 1%

Question: With `CN(CCCNC(=O)c1ccc(Cl)cc1)Cc1ccccc1` as the compound, how does the solubility [10] read?
Answer: The solubility was 173 µM (≈ 54.8 µg/mL).

Question: And the inhibition [6]?
Answer: Its inhibition is -5%.

Question: What about the inhibition [2] of the same compound?
Answer: The inhibition was 5%.

Question: And the inhibition [3]?
Answer: Its inhibition is 7%.

Question: And the inhibition [7]?
Answer: The inhibition was -1%.

Question: What about the logD [11] of the same compound?
Answer: Its logD is 2.51.

Question: What about the inhibition [4] of the same compound?
Answer: The inhibition was 8%.

Question: What about the Stability [12] of the same compound?
Answer: The Stability was 77%.

Question: And the inhibition [5]?
Answer: The inhibition was -4%.

Question: Which results are given for `CCCc1ccc(C(=O)NCCCN(C)Cc2ccccc2)cc1`?
Answer: inhibition [1]: -9%; inhibition [2]: 4%; inhibition [3]: 0%; inhibition [7]: 2%; inhibition [4]: -4%; inhibition [5]: -7%

Question: Which inhibition [6] does the source give for `CN(CCCNC(=O)c1ccc([N+](=O)[O-])cc1)Cc1ccccc1` here?
Answer: Its inhibition is 0%.

Question: And the inhibition [2]?
Answer: The inhibition was 5%.

Question: What about the inhibition [3] of the same compound?
Answer: Its inhibition is 0%.

Question: What about the inhibition [4] of the same compound?
Answer: The inhibition was -6%.

Question: What about the inhibition [5] of the same compound?
Answer: Its inhibition is 6%.
